According to patent publication US20220127297A1, “Novel Antibacterial 3"-Derivatives Of 4,6-Disubstituted 2,5-Dideoxystreptamine Aminoglycoside Antibiotics” (AGILeBiotics B.V., priority 2018, published 2022):
Values after ≈ are worked out from the molar mass of the structure shown.

System: E. coli (APH(3′)IIIa)
Assay: MIC 50, broth micro-dilution, E. coli expressing APH(3′)IIIa
Type: cell-based, Escherichia coli
Conditions: ATCC25922 harboring plasmid encoding APH(3′)IIIa
Description: Plasmid transformation. Approximately 500 ng of the pET-9b(+) (Cat. No. 69432-3, Merck), pAT21-1 (provided by Prof. Dr. Patrice Courvalin, M.D., Pasteur Institute, France; prepared according to Trieu-Cuot et. al, Mol. Gen. Genet. 198(2), 348 (1985)), pBluescript::AAC(6′)-Ie/APH(2″)-Ia (provided by Prof. Dr. Sergei Vakulenko, M.D., University of Notre Dame, Ind., USA; prepared according to S. B. Vakulenko et. al., J. Biol. Chem. 287 (52), 43262 (2012)), pBlue_lpp_aacC3_rrnC and pSET152 (Cat. No. PVT3395, Life Science Market; prepared according to Bierman et al., Gene 116 (1), 43 (1992)) plasmids, encoding APH(3′)-Ia (SEQ ID NO:2), APH(3′)-IIIa (SEQ ID NO:3), AAC(6′)Ie-APH(2″)-Ia (SEQ ID NO:4), AAC(3)-III (SEQ ID NO:1), and AAC(3)-IV (SEQ ID NO:5) respectively, were individually incubated in a vial of competent cells for 15 min on ice. The cells were subsequently heated to 42° C. for 90 s, and cooled on ice for 1 min. After addition of 900 μL LB, the cells were incubated for 1 h at 37° C. and 200 rpm. Cells were plated on LB-agar supplemented with 50 μg/mL KanaA and incubated for 18 h at 37° C. The next day, a single colony was inoculated in 5 mL LB supplemented with 50 μg/mL and grown for 18 h at 37° C. and 200 rpm. A 200 μL sample of each culture was diluted with 200 μL of 40% v/v glycerol in water, and stored at −80° C. The plasmid was purified from the remaining culture using the Plasmid Miniprep kit. Plasmid DNA was investigated by Eurofins Genomics (Germany) to confirm the identity of the aminoglycoside resistance genes.
3.1 Against E. coli Strains
Tested reference compounds. Amikacin sulfate (Cat. No. 01693, Chem-Impex), Gentamicin sulfate (Cat. No. G4918, Sigma Aldrich).
Microbial strains. E. coli ATCC 25922, E. coli ATCC 25922/pET-9b(+), E. coli ATCC 25922/pAT21-1, E. coli ATCC 25922/pBluescript::AAC(6′)-Ie/APH(2″)-Ia, E. coli ATCC 25922/pBlue_lpp_aacC3_rrnC, E. coli ATCC 25922/pSET152.
Culture media and equipment. BBL™ Mueller Hinton Broth 2 (Lot. BCBW1143, Cat. No. 70192, Sigma); Kanamycin A (Cat. No. A1493, AppliChem); 96-well deep well plate, 1 mL (Cat. No. 0030506.200, Eppendorf); Plate lids (Cat. No. 0030131.525, Eppendorf); 96-well plate, F-bottom (Cat. No. 781602, Brand; Incubator, Infors Multitron Pro); Laminar flow (Heraeus KS12); UV/VIS meter (Eppendorf BioPhotometer Plus); Platereader (Tecan Sunrise).
Compound preparation. Compounds were prepared in MH2 media at a concentration of 5 mM and stored at 4° C. For testing, solutions of 128 μM were prepared in MH2. Out of these working solutions, 400 μL was transferred to wells in the first column of 96-well deep well plates. Each compound was transferred in triplicate. Plates were previously filled with 200 μL of MH2 media in all wells except for the wells in the first column. After compound and antibiotic addition, the compounds were serial two-fold diluted by transferring 200 μL from the first to the second column, then from the second to the third column and so on. Finally, 200 μL was removed from the last column.
Inoculum preparation. Microorganisms used were all revived from 20% glycerol (40% v/v glycerol in water was diluted with MH2) storage at −80° C. by inoculating them in 5 mL MH2. inoculums of E. coli containing a plasmid were selected for by adding 50 μg/mL KanaA. The Inoculums were grown to an optical density (measured by UV/Vis spectroscopy) of 0.6-0.8 at 600 nm. Out of these suspensions, actual inoculums were prepared by diluting them to an optical density (OD) of 0.1 in MH2 media. From these inoculums, 200 μL was transferred to each well, resulting in a final compound concentration range of 64 μM-31.3 nM. All plates were incubated at 900 rpm and 70% rH for 18 h at 37° C.
MIC determination. After 18 h of growth, 200 μL was transferred to a 96-well F-bottom plate. The optical density was determined by a plate reader at 600 nm, with 10 s shaking before reading. Triplicate measurements were averaged, and a growth curve was plotted in Microsoft Excel. […]

Row | SMILES | MIC50 [µM]
1 | NCC[C@H](O)C(=O)N[C@@H]1CC(N)[C@@H](O[C@H]2OC(CN)[C@@H](O)CC2N)[C@H](F)C1OC1O[C@H](CO)[C@@H](O)C(N)[C@H]1O (some centres unmarked) [ABX5024, Tobra-AHB-F] | 1 (≈ 0.571 µg/mL)
2 | NCCC(O)C(=O)NC1CC(N)C(OC2OC(CN)C(O)C(O)C2N)C(F)C1OC1OC(CO)C(O)C(N)C1O (centres unmarked) [ABX4007, KanaB-AHB-F] | 16 (≈ 9.39 µg/mL)
3 | N=C(N)NC1[C@@H](O)C(OC2[C@@H](F)[C@H](O[C@H]3OC(CN)[C@@H](O)[C@H](O)C3N)C(N)C[C@H]2NC(=O)[C@@H](O)CCN)O[C@H](CO)[C@H]1O (some centres unmarked) [ABX4006, KanaB-AHB-F-Gua] | 4 to 8
4 | N=C(N)N[C@@H]1[C@@H](O)[C@@H](O[C@@H]2[C@@H](O)[C@H](O[C@H]3O[C@H](CN)[C@@H](O)[C@@H](O)[C@H]3N)[C@@H](N)C[C@H]2NC(=O)[C@@H](O)CCN)O[C@H](CO)[C@H]1O [ABX4005, 3′Epi-KanaB-AHB-Gua] | 8 to 16
5 | NCCC(O)C(=O)NC1CC(N)C(OC2OC(CN)C(O)C(O)C2N)C(O)C1OC1OC(CO)C(O)C(N)C1O (centres unmarked) [ABX4001, KanaB-AHB] | 8 to 16
6 | NCC[C@H](O)C(=O)N[C@@H]1CC(N)[C@@H](O[C@H]2OC(CN)[C@@H](O)[C@@H](O)C2N)[C@H](F)C1OC1O[C@H](CO)[C@@H](O)C(N)[C@H]1O (stereo partly drawn) [ABX4003, 3′Epi-KanaB-AHB-F] | 8 (≈ 4.69 µg/mL)
7 | N=C(N)NC1[C@@H](O)C(OC2[C@@H](O)[C@H](O[C@H]3OC(CN)[C@@H](O)CC3N)C(N)C[C@H]2NC(=O)[C@@H](O)CCN)O[C@H](CO)[C@H]1O (some centres unmarked) [ABX5005, Tobra-AHB-Gua] | 2 to 4
8 | NCCC(O)C(=O)NC1CC(N)C(OC2OC(CN)C(O)C(O)C2O)C(F)C1OC1OC(CO)C(O)C(N)C1O (stereo not drawn) [ABX3005, 3′Epi-KanaA-AHB-F] | 4 to 8

Same assay, conditions: Escherichia coli, ATCC25922, ATCC25922 harboring plasmid encoding APH(3′)IIIa

Row | SMILES | MIC50 [µM]
9 | N=C(NCCO)NC1[C@@H](O)C(OC2[C@@H](F)[C@H](O[C@H]3OC(CN)[C@@H](O)CC3N)C(N)C[C@H]2NC(=O)[C@@H](O)CCN)O[C@H](CO)[C@H]1O (some centres unmarked) [ABX5029, Tobra-AHB-F-Gua 2-hydroxy-ethyl] | 0.5 (≈ 0.328 µg/mL)
10 | N=C(NC[C@H]1CNCCO1)NC1[C@@H](O)C(OC2[C@@H](F)[C@H](O[C@H]3OC(CN)[C@@H](O)CC3N)C(N)C[C@H]2NC(=O)[C@@H](O)CCN)O[C@H](CO)[C@H]1O (stereo partly drawn) [ABX5043, Tobra-AHB-F-Gua (R) morpholin-2-yl methyl] | 0.25 (≈ 0.178 µg/mL)
11 | N=C(NCc1ccncc1)NC1[C@@H](O)C(OC2[C@@H](F)[C@H](O[C@H]3OC(CN)[C@@H](O)CC3N)C(N)C[C@H]2NC(=O)[C@@H](O)CCN)O[C@H](CO)[C@H]1O (some centres unmarked) [ABX5048, Tobra-AHB-F-Gua pyridin-4-yl methyl] | 0.25 (≈ 0.176 µg/mL)
12 | NCC[C@H](O)C(=O)N[C@@H]1C[C@H](N)[C@@H](O[C@H]2O[C@H](CN)[C@@H](O)[C@H](O)[C@H]2O)[C@H](O)[C@H]1O[C@H]1O[C@H](CO)[C@@H](O)[C@H](N)[C@H]1O [Amikacin, amikacin, reference compound] | 16 to 32 (≈ 9.37 to 18.7 µg/mL)
13 | N=C(NC[C@@H]1CCNC1)NC1[C@@H](O)C(OC2[C@@H](F)[C@H](O[C@H]3OC(CN)[C@@H](O)CC3N)C(N)C[C@H]2NC(=O)[C@@H](O)CCN)O[C@H](CO)[C@H]1O (stereo partly drawn) [ABX5039, Tobra-AHB-F-Gua (R) pyrrolidine-3-ylmethyl] | 0.25 (≈ 0.174 µg/mL)
14 | N=C(NCC1CCOC1)NC1[C@@H](O)C(OC2[C@@H](F)[C@H](O[C@H]3OC(CN)[C@@H](O)CC3N)C(N)C[C@H]2NC(=O)[C@@H](O)CCN)O[C@H](CO)[C@H]1O (some centres unmarked) [ABX5051, Tobra-AHB-F-Gua tetrahydrofuran-3-yl methyl] | 0.5 (≈ 0.348 µg/mL)
15 | C[C@@H](N)CCNC(=N)NC1[C@@H](O)C(OC2[C@@H](F)[C@H](O[C@H]3OC(CN)[C@@H](O)CC3N)C(N)C[C@H]2NC(=O)[C@@H](O)CCN)O[C@H](CO)[C@H]1O (stereo partly drawn) [ABX5047, Tobra-AHB-F-Gua (R) 3-amino-butyl] | 0.25 (≈ 0.171 µg/mL)
16 | N=C(N)NC1[C@@H](O)C(OC2[C@@H](F)[C@H](O[C@H]3OC(CNCCO)[C@@H](O)CC3N)C(N)C[C@H]2NC(=O)[C@@H](O)CCN)O[C@H](CO)[C@H]1O (some centres unmarked) [ABX5045, 6N-2-hydroxy-ethyl-Tobra-AHB-F-Gua] | 1 (≈ 0.657 µg/mL)
17 | N=C(NC[C@@H]1CCCN1)NC1[C@@H](O)C(OC2[C@@H](F)[C@H](O[C@H]3OC(CN)[C@@H](O)CC3N)C(N)C[C@H]2NC(=O)[C@@H](O)CCN)O[C@H](CO)[C@H]1O (stereo partly drawn) [ABX5026, Tobra-AHB-F-Gua (S) pyrrolidine-2-yl-methyl] | 0.25 (≈ 0.174 µg/mL)
18 | CNCCNC(=N)NC1[C@@H](O)C(OC2[C@@H](F)[C@H](O[C@H]3OC(CN)[C@@H](O)CC3N)C(N)C[C@H]2NC(=O)[C@@H](O)CCN)O[C@H](CO)[C@H]1O (some centres unmarked) [ABX5038, Tobra-AHB-F-Gua 2-(methylamino)ethyl] | 0.25 (≈ 0.167 µg/mL)
19 | N=C(NCC1CCCO1)NC1[C@@H](O)C(OC2[C@@H](F)[C@H](O[C@H]3OC(CN)[C@@H](O)CC3N)C(N)C[C@H]2NC(=O)[C@@H](O)CCN)O[C@H](CO)[C@H]1O (some centres unmarked) [ABX5046, Tobra-AHB-F-Gua tetrahydrofuran-2-yl methyl] | 0.5 (≈ 0.348 µg/mL)
20 | N=C(NC[C@@H]1CNCCO1)NC1[C@@H](O)C(OC2[C@@H](F)[C@H](O[C@H]3OC(CN)[C@@H](O)CC3N)C(N)C[C@H]2NC(=O)[C@@H](O)CCN)O[C@H](CO)[C@H]1O (stereo partly drawn) [ABX5040, Tobra-AHB-F-Gua (S) morpholin-2-yl methyl] | 0.25 (≈ 0.178 µg/mL)
21 | N=C(NCc1cnc[nH]1)NC1[C@@H](O)C(OC2[C@@H](F)[C@H](O[C@H]3OC(CN)[C@@H](O)CC3N)C(N)C[C@H]2NC(=O)[C@@H](O)CCN)O[C@H](CO)[C@H]1O (some centres unmarked) [ABX5050, Tobra-AHB-F-Gua imidazol-5-yl methyl] | 1 to 2 (≈ 0.693 to 1.39 µg/mL)
22 | N=C(NCCCO)NC1[C@@H](O)C(OC2[C@@H](F)[C@H](O[C@H]3OC(CN)[C@@H](O)CC3N)C(N)C[C@H]2NC(=O)[C@@H](O)CCN)O[C@H](CO)[C@H]1O (some centres unmarked) [ABX5041, Tobra-AHB-F-Gua 3-hydroxy-propyl] | 0.5 (≈ 0.335 µg/mL)
23 | N=C(N)NC1[C@@H](O)C(OC2[C@@H](F)[C@H](O[C@H]3OC(CN)[C@@H](O)[C@H](O)C3O)C(N)C[C@H]2NC(=O)[C@@H](O)CCN)O[C@H](CO)[C@H]1O (stereo partly drawn) [ABX3003, 3′epi-KanaA-AHB-F-Gua] | 2 (≈ 1.26 µg/mL)
24 | N=C(NCCCN)NC1[C@@H](O)C(OC2[C@@H](F)[C@H](O[C@H]3OC(CN)[C@@H](O)CC3N)C(N)C[C@H]2NC(=O)[C@@H](O)CCN)O[C@H](CO)[C@H]1O (some centres unmarked) [ABX5030, Tobra-AHB-F-Gua-3-amino-propyl] | 0.25 (≈ 0.167 µg/mL)
25 | N=C(N)NC1C(O)[C@@H](CO)OC(OC2C(F)[C@H](O[C@H]3OC(CN)[C@@H](O)CC3N)C(N)C[C@H]2NC(=O)[C@@H](O)CCN)[C@@H]1O (some centres unmarked) [ABX5006, Tobra-AHB-F-Gua] | < 0.25
26 | N=C(NCCN)NC1C(O)[C@@H](CO)OC(OC2C(F)[C@H](O[C@H]3OC(CN)[C@@H](O)CC3N)C(N)C[C@H]2NC(=O)[C@@H](O)CCN)[C@@H]1O (some centres unmarked) [ABX5020, Tobra-AHB-F-Gua-2-amino-ethyl] | 0.5 (≈ 0.328 µg/mL)
